Earlier results on six compounds are cited in patent US20260273108A1, “USE OF ACRYLIC ACID-CONTAINING POLYMERS FOR MOLECULAR IMAGING OF TARGET PROTEINS” (The Johns Hopkins University, priority 2023, published 2026).

The conditions of data set [1]: for Radio frequency: radiofrequency for saturation (CEST).
The conditions of data set [2]: bolus intravenous injection in humans.
The conditions of data set [3]: IV dose for rodents.
The mark [4] stands for this setting: water-exchanging protons at a pH of 7-7.4 and temperature of 36-67° C.

Read-outs that look alike come from different tables or passages of the source. Marks after values point to notes of the source that are not given here.

As to `Nc1ccc(C(=O)O)c(O)c1` [4-Aminosalicylate], in data set [1] (setting [4]), the Exchange rate kex result is “N/A, 1,200 s^−1”. Besides, the “IV Dose” value in data set [2] is 2.33 mmol/kg.

For `C[C@H](N)C(=O)O` [Alanine], the Radio frequency in data set [1] is 3.0 ppm. Besides, the Exchange rate kex in data set [1] (setting [4]) was 7,670 s^−1. Also, the “IV Dose” value in data set [2] was 5.61 mmol/kg.

With `N=C(N)NCCC[C@H](N)C(=O)O` [Arginine], the Radio frequency in data set [1] is 1.8-2.0 ppm. In addition, the Exchange rate kex in data set [1] (setting [4]) is on record as 1,200 s^−1.

In the case of `O=C1CC(=O)NC(=O)N1` [Barbituric acid], in data set [1], the Radio frequency is listed as 5.0 ppm. Also, the “IV Dose” value in data set [3] is 1.56* mmole/kg.

Take `N[C@H]1C(O)O[C@H](CO)[C@@H](O)[C@@H]1O` (stereo partly drawn) [Glucosamine]: the Exchange rate kex in data set [1] (exchange rates for glucose, pH of 7-7.4 and temperature of 36-67° C.) was 2,900-14,000^# s^−1. Moreover, in data set [1], the Radio frequency was 1.2 ppm. In addition, in data set [2], the “IV Dose” value was 1.86 mmol/kg.

As for `O=c1ccn([C@@H]2O[C@H](CO)[C@@H](O)[C@H]2O)c(=O)[nH]1` [Uridine], the Radio frequency in data set [1] is listed as 6.3-6.4 ppm. The Exchange rate kex in data set [1] (setting [4]) is 3080 s⁻¹. Further, in data set [2], the “IV Dose” value was 1.43 mmol/kg.
